Columns and labels:
Human t-PA = molecular target: T1, Human t-PA (Homo sapiens, UniProt P00750); experiment: Enzyme selectivity evaluation test: t-PA; type: biochemical
T1 construct: purchased Calbiochem
Protocol: (§1) S-2288 (H-D-Ile-Pro-Arg-pNA.2HCl) was added as the substrate at a final concentration of 300 μmol/L. After progression of the reaction, the absorbance was measured at OD 405 nm.

Mouse plasma = experiment: Species difference test: aPTT prolongation in plasma; type: biochemical
Protocol: (§2) The compound of Reference Example 2-6 dissolved in DMSO was added at final concentrations of 0.03 to 200 μmol/L to the plasma of each animal species prepared using 3.2% sodium citrate. The solution was incubated at 37° C. for 6 minutes. Then, an STA reagent Cephascreen (for aPTT assay; manufactured by Roche Diagnostics K.K.) was added thereto in an amount equal to the total amount of the plasma and the DMSO solution, and the mixture was further incubated for 4 minutes. Then, STA calcium chloride (manufactured by Roche Diagnostics K.K.) was added thereto in an amount equal to the total amount of the plasma and the DMSO solution, and the time required for coagulation was measured. The concentration at which the coagulation time was prolonged two times (EC2x) was calculated for each plasma.

Cynomolgus monkey plasma = experiment: as above; type: biochemical
Protocol: as §2

Dog plasma = experiment: as above; type: biochemical
Protocol: as §2

human plasma = experiment: as above; type: biochemical
Protocol: as §2

Rabbit plasma = experiment: as above; type: biochemical
Protocol: as §2

Rat plasma = experiment: as above; type: biochemical
Protocol: as §2

Human FXIIa = molecular target: T2, Human FXIIa (Homo sapiens, UniProt P00748); experiment: Enzyme selectivity evaluation test: FXIIa; type: biochemical
T2 construct: 5) Factor XIIa (FXIIa); purchased Enzyme Research Laboratories
Protocol: as §1

Human FIXαβ = molecular target: T3, Human FIXαβ (Homo sapiens, UniProt P00740); experiment: Enzyme selectivity evaluation test: FIXa; type: biochemical
T3 construct: 3) Factor IXa (FIXa); purchased Enzyme Research Laboratories
Protocol: SPECTROZYME® FIXa (D-Leu-Ph′Gly-Arg-pNA.2AcOH) (manufactured by American Diagnostica Inc.) was added as the substrate at a final concentration of 800 μmol/L. After progression of the reaction, the absorbance was measured at OD 405 nm. Change in OD in case of no addition of the test compound was defined as 100%, and the concentration at which a rise in OD value was reduced by 50% was calculated as […]

Human plasmin = molecular target: T4, Human plasmin (Homo sapiens, UniProt P00747); experiment: Enzyme selectivity evaluation test: plasmin; type: biochemical
T4 construct: Human plasmin (manufactured by Sekisui Diagnostics, LLC); purchased Sekisui Diagnostics, LLC
Protocol: as §1

[1] = system: Rabbit venous thrombus models; experiment: Effect of combined use with antiplatelet drug using rabbit AVST model; type: in vivo; conditions: alone
Protocol: Rabbit venous thrombus models were prepared by a modification of the report of Wong et al. (Wong P C. et al., J. Pharmacol. Exp. Ther. 292: 351-357 (2000)). […] A tracheostomy tube was inserted to each rabbit, which was then ventilated using a respirator. For the intravenous administration of a test drug and blood collection, catheters were inserted to the right femoral vein and the right femoral artery, respectively. An arteriovenous shunt filled with saline was inserted to the carotid artery and the jugular vein. […] Also, 4-0 silk thread having a length of 5 cm was indwelled in the arteriovenous shunt. Blood was sent for 30 minutes from the carotid artery to the jugular vein via the arteriovenous shunt. The shunt was removed, and the weight of the silk thread covered with thrombus was measured. The weight of the silk thread measured before the experiment was subtracted from the measured weight, and the obtained value was used as a wet thrombus weight. One hour before the open of the arteriovenous shunt, the test drug or a vehicle was promptly intravenously administered (0.67 mL/kg) and then continuously intravenously administered (1 mL/kg/hr). The continuous injection was continued throughout the experiment. […] STA calcium chloride (manufactured by Roche Diagnostics K.K.) was added in an amount equal thereto, and the time required for coagulation was measured.

Human FXa = molecular target: T5, Human FXa (Homo sapiens, UniProt P00742); experiment: Enzyme selectivity evaluation test: FXa; type: biochemical
T5 construct: 4) Factor Xa (FXa); purchased Enzyme Research Laboratories
Protocol: S-2222 (Bz-Ile-Glu(γ-OR)-Gly-Arg-pNAHC1 (SEQ ID NO: 1), R═H (50%) and R═CH3 (50%)) (manufactured by Chromogenix) was added as the substrate at a final concentration of 150 μmol/L. After progression of the reaction, the absorbance was measured at OD 405 nm.

[2] = system: Rabbit nail bleeding models; experiment: Effect of combined use with antiplatelet drug using rabbit nail bleeding model; type: in vivo; conditions: alone; for Bleeding time: rabbit, maximum 60 minutes; for Bleeding time (fold-increase): ratio to vehicle group average
Protocol: Rabbit nail bleeding models were prepared by a modification of the report of Wong et al. (Wong P C. et al., J. Thromb. Haemost. 7: 1313-1320 (2009)). Male rabbits (JW, 1.5 to 3.5 kg) were anesthetized by the inhalation of isoflurane (ISOFLU®, manufactured by DS Pharma Animal Health Co., Ltd.) (introduced anesthesia: 4%, continuous anesthesia: 2 to 3%). For the intravenous administration of a test drug or a vehicle, an indwelling needle was inserted to the auricular vein, and the test drug or the vehicle was promptly intravenously administered (0.67 mL/kg) and then continuously intravenously administered (1 mL/kg/hr). One hour after the start of administration, three posterior toenails were cut and dipped in saline heated to approximately 37° C., and the bleeding time was measured. The bleeding time was defined as a time from the cutting to the arrest of bleeding, and an average value from the three nails was used. The measurement time was 60 minutes at the maximum. If bleeding for 60 minutes or longer was confirmed, the bleeding time was regarded as 60 minutes.

[3] = dose 0.5 + 0.75 mg/kg + mg/kg/h i.v.
[4] = dose 1.5 + 2.25 mg/kg + mg/kg/h i.v.
[5] = dose 5.0 + 7.5 mg/kg + mg/kg/h i.v.

T4 sequence (P00747 581-810 limits assumed): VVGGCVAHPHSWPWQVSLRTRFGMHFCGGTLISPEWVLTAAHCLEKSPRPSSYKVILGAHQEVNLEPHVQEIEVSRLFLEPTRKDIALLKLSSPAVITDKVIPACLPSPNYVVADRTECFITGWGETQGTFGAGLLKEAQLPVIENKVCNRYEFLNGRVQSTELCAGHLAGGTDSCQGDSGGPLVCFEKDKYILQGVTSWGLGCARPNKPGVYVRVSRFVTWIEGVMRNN
T4 sequence (P00747 97-580 partner limits assumed): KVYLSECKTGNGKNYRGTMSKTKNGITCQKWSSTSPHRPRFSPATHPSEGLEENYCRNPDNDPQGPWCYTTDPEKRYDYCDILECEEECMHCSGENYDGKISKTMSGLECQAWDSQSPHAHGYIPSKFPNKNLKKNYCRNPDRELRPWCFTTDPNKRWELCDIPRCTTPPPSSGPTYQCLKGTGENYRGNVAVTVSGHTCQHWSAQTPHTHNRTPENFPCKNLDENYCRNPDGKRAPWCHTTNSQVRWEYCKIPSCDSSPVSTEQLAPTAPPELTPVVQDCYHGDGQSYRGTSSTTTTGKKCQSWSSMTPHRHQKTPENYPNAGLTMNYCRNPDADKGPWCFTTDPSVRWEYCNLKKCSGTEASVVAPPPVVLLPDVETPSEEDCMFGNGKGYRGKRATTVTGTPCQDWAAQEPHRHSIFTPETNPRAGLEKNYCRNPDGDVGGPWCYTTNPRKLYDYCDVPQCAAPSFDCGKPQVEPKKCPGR
T3 sequence (P00740 227-461 limits assumed): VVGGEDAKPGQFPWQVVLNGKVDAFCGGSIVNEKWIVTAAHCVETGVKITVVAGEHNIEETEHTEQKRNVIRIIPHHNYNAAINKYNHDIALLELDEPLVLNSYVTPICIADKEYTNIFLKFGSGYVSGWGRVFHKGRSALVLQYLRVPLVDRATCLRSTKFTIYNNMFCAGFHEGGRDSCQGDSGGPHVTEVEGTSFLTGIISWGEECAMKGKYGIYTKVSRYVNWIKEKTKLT
T3 sequence (P00740 47-191 partner limits assumed): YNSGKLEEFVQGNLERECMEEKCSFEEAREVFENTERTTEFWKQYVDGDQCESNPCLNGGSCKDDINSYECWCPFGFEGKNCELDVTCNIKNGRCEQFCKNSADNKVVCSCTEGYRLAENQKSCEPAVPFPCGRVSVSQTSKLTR
T2 sequence (P00748 373-615 limits assumed): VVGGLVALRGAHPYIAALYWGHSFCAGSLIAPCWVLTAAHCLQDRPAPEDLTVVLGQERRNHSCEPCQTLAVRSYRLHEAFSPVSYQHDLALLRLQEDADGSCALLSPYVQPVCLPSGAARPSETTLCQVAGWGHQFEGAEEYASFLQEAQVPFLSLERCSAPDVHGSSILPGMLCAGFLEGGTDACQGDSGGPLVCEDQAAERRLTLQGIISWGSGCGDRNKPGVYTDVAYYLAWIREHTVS
T2 sequence (P00748 20-372 partner limits assumed): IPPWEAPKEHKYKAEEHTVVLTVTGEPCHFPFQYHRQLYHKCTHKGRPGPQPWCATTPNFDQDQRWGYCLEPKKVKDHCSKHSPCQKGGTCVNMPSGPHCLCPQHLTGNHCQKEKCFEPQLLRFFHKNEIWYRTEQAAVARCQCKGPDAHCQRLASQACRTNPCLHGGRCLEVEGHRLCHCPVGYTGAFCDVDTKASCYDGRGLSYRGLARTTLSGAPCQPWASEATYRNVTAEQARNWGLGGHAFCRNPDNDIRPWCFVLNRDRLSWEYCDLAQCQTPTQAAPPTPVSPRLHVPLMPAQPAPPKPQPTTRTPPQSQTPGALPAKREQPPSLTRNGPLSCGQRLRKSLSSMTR
T5 sequence (P00742 235-488 limits assumed): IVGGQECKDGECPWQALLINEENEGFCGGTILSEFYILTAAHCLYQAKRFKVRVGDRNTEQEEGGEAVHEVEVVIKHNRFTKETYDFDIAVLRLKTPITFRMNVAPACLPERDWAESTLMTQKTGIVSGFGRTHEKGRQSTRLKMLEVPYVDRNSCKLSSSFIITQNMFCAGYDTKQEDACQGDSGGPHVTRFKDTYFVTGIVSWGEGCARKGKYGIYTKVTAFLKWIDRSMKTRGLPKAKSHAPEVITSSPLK
T5 sequence (P00742 41-179 partner limits assumed): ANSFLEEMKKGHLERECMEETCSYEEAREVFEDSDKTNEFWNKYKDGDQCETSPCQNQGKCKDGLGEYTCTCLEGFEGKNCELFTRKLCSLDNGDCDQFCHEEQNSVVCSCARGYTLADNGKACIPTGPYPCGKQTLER
T1 sequence (P00750 36-562): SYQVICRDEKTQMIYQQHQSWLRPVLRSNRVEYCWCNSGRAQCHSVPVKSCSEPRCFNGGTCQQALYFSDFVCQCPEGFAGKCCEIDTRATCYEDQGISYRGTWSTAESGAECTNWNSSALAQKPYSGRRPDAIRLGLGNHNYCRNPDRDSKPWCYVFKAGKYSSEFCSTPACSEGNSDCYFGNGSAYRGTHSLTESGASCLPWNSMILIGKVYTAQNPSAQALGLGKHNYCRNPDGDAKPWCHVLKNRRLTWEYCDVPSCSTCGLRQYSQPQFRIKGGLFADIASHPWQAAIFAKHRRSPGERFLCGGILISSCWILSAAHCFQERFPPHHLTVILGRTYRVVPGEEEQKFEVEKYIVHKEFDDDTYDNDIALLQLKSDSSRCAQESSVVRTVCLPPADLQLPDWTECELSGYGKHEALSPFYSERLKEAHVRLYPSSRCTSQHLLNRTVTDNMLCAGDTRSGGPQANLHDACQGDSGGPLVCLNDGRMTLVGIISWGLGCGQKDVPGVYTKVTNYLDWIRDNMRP

Cl.N[C@H](CF)[C@H]1CC[C@H](C(=O)N2CC[C@@H](C3CCCCC3)[C@H]2C(=O)Nc2ccc3[nH]c(C(=O)O)cc3c2)CC1 [Reference Example 2-6, 5-{[(3S)-1-({trans-4-[(1S)-1-Amino-2-fluoroethyl]cyclohexyl}carbonyl)-3-cyclohexyl-L-prolyl]amino}-1H-indole-2-carboxylic acid hydrochloride]
IC50 (Human t-PA): > 10 µM | EC2x (concentration at which the coagulation time was prolonged two times) (Mouse plasma): >200 µM | EC2x (concentration at which the coagulation time was prolonged two times) (Cynomolgus monkey plasma): 2.6 µM | EC2x (concentration at which the coagulation time was prolonged two times) (Dog plasma): 34.4 µM | EC2x (concentration at which the coagulation time was prolonged two times) (human plasma): 0.6 µM | EC2x (concentration at which the coagulation time was prolonged two times) (Rabbit plasma): 34.2 µM | EC2x (concentration at which the coagulation time was prolonged two times) (Rat plasma): >200 µM | IC50 (Human FXIIa): > 10 µM | IC50 (Human FIXαβ): > 10 µM | IC50 (Human plasmin): > 10 µM | PT (ratio) [1, 3]: 1.00 ± 0.02 ratio | Thrombus weight [1, 3]: 66 ± 22 mg | aPTT (ratio) [1, 3]: 1.59 ± 0.15 ratio | PT (ratio) [1, 4]: 1.01 ± 0.00 ratio | Thrombus weight [1, 4]: 36 ± 6 mg | aPTT (ratio) [1, 4]: 1.84 ± 0.10 ratio | IC50 (Human FXa): > 10 µM | Bleeding time [2, 4]: 772 ± 234 s | Bleeding time [2, 5]: 768 ± 236 s | Bleeding time (fold-increase) [2, 4]: 1.3 ± 0.4 fold-increase | Bleeding time (fold-increase) [2, 5]: 1.3 ± 0.4 fold-increase

From patent publication US9718840B2, “Condensed 5-oxazolidinone derivative” (SUMITOMO DAINIPPON PHARMA CO., LTD., priority 2014, dated 2017)
